{"source": "paper PMC11478334", "about": "“Quaternized Curcumin Derivative—Synthesis, Physicochemical Characteristics, and Photocytotoxicity, Including Antibacterial Activity after Irradiation with Blue Light” (Molecules, 2024)", "key": {"S. aureus": {"system": "S. aureus", "conditions": "10 µM; 440 nm; 1.944 J/cm^2; 3.6 mW/cm^2; 8.8 min; cited from earlier work"}, "[1]": {"system": "Escherichia coli ATCC 25922", "assay": "In vitro photodynamic inactivation of planktonic cells, 470 nm LED", "type": "cell-based", "procedure": "(§1) In the first experiment, the main goal was to determine whether the tested compounds were antimicrobially active with or without light. Two compounds (2 and 3) were tested in the visible range, and a 470 nm LED lamp was applied (Figure 11). Due to poor solubility and low absorption, curcumin was not included in the tests. A screening study was carried out on three strains: Gram-positive bacteria—Staphylococcus aureus NCTC 4163, Gram-negative bacteria—Escherichia coli ATCC 25922, and the yeast Candida albicans ATCC 10231. In the study, the irradiation lasted 30 min, and the lamp was placed 10 mm above the microtiter plate containing the bacterial suspensions and tested compounds at concentrations of 10 μM. The preincubation time (PIT) lasted 20 min, and the LED lamp emitted visible light (λmax 470 nm) with an irradiance of 16.67 mW/cm^2, which corresponds to a light dose (fluence) of 30.01 J/cm^2 after 30 min of exposure. The light exposure conditions (lamp distance, lamp power, and lamp type) were the same in all subsequent experiments. The light dose depended on the irradiation time. […] Compound 3 presented activity against both G+ (S. aureus) and G− (E. coli) bacteria. The light-induced antimicrobial activity against S. aureus and E.coli exceeded log reductions of 5.54 and 4.46, respectively. At these concentrations, not even a single colony was observed on the plates, as complete eradication occurred.\n(§2) The second experiment was designed to determine the time and concentration required to achieve the biological effect observed in the first experiment and to extend the study to other strains (Figure 12). Apart from S. aureus and E. coli, the Gram-positive Streptococcus pyogenes ATCC 19615, which is the etiologic agent of tonsillitis, and the Gram-negative Pseudomonas aeruginosa NCTC 6749, which is a major threat to hospitalized and immunocompromised patients due to its high antibiotic resistance, were used. The observed effect was strictly concentration-dependent (Table 6). According to the results, Gram-positive bacteria appear to be the most susceptible to the applied photocytotoxicity study. […] For S. pyogenes, the results were even more pronounced, as the complete eradication under the influence of compound 3 at a concentration of 10 µM occurred after only 5 min of irradiation, while at a concentration of 1 µM, complete eradication occurred after 15 min of irradiation. Interesting results were also obtained for Gram-negative bacteria. […] A high level of eradication of P. aeruginosa in the presence of compound 3 (10 µM) was observed after only 5 min of irradiation (log reduction: 4.29). […] Reductions in microbial survival were still observed with a decrease in compound concentration, but complete eradication was not achieved within the irradiation time.\n(§3) The microorganisms used in the study were (i) standard strains of bacteria: Staphylococcus aureus NCTC 4163, Escherichia coli ATCC 25922, Pseudomonas aeruginosa NCTC 6749, and Streptococcus […] ATCC 19615, and (ii) fungi: Candida albicans ATCC 10231. The standard strains were obtained from the National Collection of Type Cultures (NCTC, Salisbury, UK) and the American Type Culture Collection (ATCC, Manassas, VA, USA). Bacterial and yeast strains were stored in Microbank cryogenic vials (Pro-Lab Diagnostics, Richmond Hill, ON, Canada) at −70 °C ± 10 °C. The bacteria were cultured aerobically in brain–heart infusion (BHI) broth (OXOID, Basingstoke, UK) at 36 °C ± 1 °C for 20 h. C. albicans cultures were grown in Sabouraud dextrose broth (SDB, Merck, Steinheim, Germany) at 36 °C for 20 h.\n(§4) The organisms were harvested by centrifugation (3000× g for 15 min) and resuspended in 1.5 mL of 10 mM PBS, pH, 7.0 (Sigma-Aldrich, St. Louis, MO, USA). The cells were then diluted 1/100 in PBS to a final concentration of about 10^7 colony-forming units (CFUs)/mL. […]"}, "[2]": {"system": "Staphylococcus aureus NCTC 4163", "assay": "In vitro photodynamic inactivation of planktonic cells, 470 nm LED", "type": "cell-based", "procedure": "as §1, §2, §3, §4"}, "[3]": {"system": "Candida albicans ATCC 10231", "assay": "In vitro photodynamic inactivation of planktonic cells, 470 nm LED", "type": "cell-based", "conditions": "10 µM", "procedure": "as §1\nThe microorganisms used in the study were (i) standard strains of bacteria: Staphylococcus aureus NCTC 4163, Escherichia coli ATCC 25922, Pseudomonas aeruginosa NCTC 6749, and Streptococcus […] ATCC 19615, and (ii) fungi: Candida albicans ATCC 10231. The standard strains were obtained from the National Collection of Type Cultures (NCTC, Salisbury, UK) and the American Type Culture Collection (ATCC, Manassas, VA, USA). […]\nThe organisms were harvested by centrifugation (3000× g for 15 min) and resuspended in 1.5 mL of 10 mM PBS, pH, 7.0 (Sigma-Aldrich, St. Louis, MO, USA). […] Viable microorganisms were measured by counting the number of colony-forming units (CFUs) after appropriate serial dilution and culture on tryptic soy agar plates (TSA, OXOID, Basingstoke, UK) or Columbia Blood Agar with Sheep Blood (CAS, OXOID, Basingstoke, UK) for bacteria and Sabouraud dextrose agar (SDA, Merck, Steinheim, Germany) for fungi, following incubation at 36 °C ± 1 °C for 24–72 h. The number of surviving organisms and the log10 reduction in microbial cells for each sample were calculated using a formula available in the literature.\n(§5) Lamp type—LED λmax~470 nm (LIU470A LED Array Light Source; Thorlabs Inc., Bergkirchen, Germany); irradiance—16.67 mW/cm^2 (measured with PM16-130 Power Meter, Thorlabs Inc., Bergkirchen, Germany, and Optel Opole Sp. z o.o., Opole, Poland)."}, "[4]": {"system": "Pseudomonas aeruginosa NCTC 6749", "assay": "In vitro photodynamic inactivation of planktonic cells, 470 nm LED", "type": "cell-based", "from_the_text": "as §2, §3\n(§6) The organisms were harvested by centrifugation (3000× g for 15 min) and resuspended in 1.5 mL of 10 mM PBS, pH, 7.0 (Sigma-Aldrich, St. Louis, MO, USA). The cells were then diluted 1/100 in PBS to a final concentration of about 10^7 colony-forming units (CFUs)/mL. Aliquots (100 μL) of a standardized microbial suspension were placed in the wells of microtiter plates, and an equal volume of a solution of the tested compound was added to give final concentrations of 1 × 10^−5 (10 µM) and 1 × 10^−6 M (1 µM) (groups P+). Negative control wells contained the bacterial or yeast suspension and PBS without the photosensitizer (groups P−). All the samples were incubated in the dark for 20 min and irradiated by the LED panel at a distance of 10 mm for a specific period, depending on the experiment (groups L+). To evaluate the antimicrobial activity of the tested compounds, duplicate experimental samples were prepared but not irradiated (groups L−). Viable microorganisms were measured by counting the number of colony-forming units (CFUs) after appropriate serial dilution and culture on tryptic soy agar plates (TSA, OXOID, Basingstoke, UK) or Columbia Blood Agar with Sheep Blood (CAS, OXOID, Basingstoke, UK) for bacteria and Sabouraud dextrose agar (SDA, Merck, Steinheim, Germany) for fungi, following incubation at 36 °C ± 1 °C for 24–72 h. The number of surviving organisms and the log10 reduction in microbial cells for each sample were calculated using a formula available in the literature.\nas §5"}, "[5]": {"system": "Streptococcus pyogenes ATCC 19615", "assay": "In vitro photodynamic inactivation of planktonic cells, 470 nm LED", "type": "cell-based", "conditions": "for irradiation time to complete eradication: 470 nm LED", "from_the_text": "as §2, §3, §6, §5"}, "[6]": {"conditions": "L+P+, 10 µM, 470 nm, 30 min, 30.01 J/cm^2"}, "[7]": {"conditions": "L+P+, 470 nm, 30 min, 30.01 J/cm^2"}, "[8]": {"conditions": "1 µM, 15 min irradiation 470 nm"}, "[9]": {"conditions": "1 µM, 25 min irradiation 470 nm"}, "[10]": {"conditions": "10 µM, 15 min irradiation 470 nm (15 J/cm^2)"}, "[11]": {"conditions": "10 µM, 25 min irradiation 470 nm (25 J/cm^2)"}, "[12]": {"conditions": "1 µM, 10 min irradiation 470 nm"}, "[13]": {"conditions": "10 µM, 5 min irradiation 470 nm (5 J/cm^2)"}}, "note": "Values joined by “and” are separate entries in the source; they are usually repeats but may differ in a detail not shown here. Equal entries are not always repeated."}
{"compound": "Curcumin [reference compound]", "values": [{"measurement": "Efficiency (log reduction)", "setting": "S. aureus", "result": 5.3, "unit": "log"}]}
{"compound": "F[B-]1(F)OC(/C=C/c2ccc(OCCN3CCOCC3)cc2)=CC(/C=C/c2ccc(OCCN3CCOCC3)cc2)=[O+]1", "note": "[Compound 2]", "values": [{"measurement": "Log10 reduction", "setting": "[1]; L−P+ (no light), 10 µM", "result": 0.52, "unit": "log"}, {"measurement": "Log10 reduction", "setting": "[2]; [6]", "result": 2.13, "unit": "log"}, {"measurement": "Log10 reduction", "setting": "[2]; L−P+ (no light), 10 µM", "result": 0.05, "unit": "log"}, {"measurement": "Log10 reduction", "setting": "[3]; [7]", "result": 0.01, "unit": "log"}, {"measurement": "Log10 reduction", "setting": "[3]; L−P+ (no light)", "result": 0.04, "unit": "log"}]}
{"compound": "C[N+]1(CCOc2ccc(C=CC3=CC(C=Cc4ccc(OCC[N+]5(C)CCOCC5)cc4)=[O+][B-](F)(F)O3)cc2)CCOCC1", "note": "[Compound 3]", "values": [{"measurement": "Log Red.", "setting": "[1]; 1 µM, 5 min irradiation 470 nm", "result": 0.83, "unit": "log"}, {"measurement": "biological activity after irradiation", "setting": "[1]; 1 µM, 470 nm LED", "result": "no biological activity"}, {"measurement": "Log Red.", "setting": "[1]; [8]", "result": 1.57, "unit": "log"}, {"measurement": "Log Red.", "setting": "[1]; [9]", "result": 1.82, "unit": "log"}, {"measurement": "Log Red.", "setting": "[1]; 10 µM, 5 min irradiation 470 nm", "result": 1.15, "unit": "log"}, {"measurement": "Log Red.", "setting": "[1]; [10]", "result": 3.08, "unit": "log"}, {"measurement": "Log Red.", "setting": "[1]; [11]", "result": 4.53, "unit": "log"}, {"measurement": "Log10 reduction", "setting": "[1]; [6]", "result": ">4.46", "unit": "log"}, {"measurement": "Log10 reduction", "setting": "[1]; L−P+ (no light), 10 µM", "result": 0.58, "unit": "log"}, {"measurement": "Log Red.", "setting": "[2]; 1 µM, 5 min irradiation 470 nm", "result": "−0.01", "unit": "log"}, {"measurement": "Log Red.", "setting": "[2]; [12]", "result": 0.77, "unit": "log"}, {"measurement": "Log Red.", "setting": "[2]; [8]", "result": 1.01, "unit": "log"}, {"measurement": "Log Red.", "setting": "[2]; 1 µM, 20 min irradiation 470 nm", "result": 1.42, "unit": "log"}, {"measurement": "Log Red.", "setting": "[2]; [13]", "result": 3.37, "unit": "log"}, {"measurement": "irradiation time to complete eradication", "setting": "[2]; 10 µM, 470 nm LED", "result": 15, "unit": "min"}, {"measurement": "Log Red.", "setting": "[2]; 10 µM, 10 min irradiation 470 nm", "result": 4.09, "unit": "log"}, {"measurement": "Log Red.", "setting": "[2]; [10]", "result": ">5.40 log and >5.4 log"}, {"measurement": "Log10 reduction", "setting": "[2]; [6]", "result": ">5.54", "unit": "log"}, {"measurement": "Log10 reduction", "setting": "[2]; L−P+ (no light), 10 µM", "result": "−0.01", "unit": "log"}, {"measurement": "Log10 reduction", "setting": "[3]; [7]", "result": "−0.04", "unit": "log"}, {"measurement": "Log10 reduction", "setting": "[3]; L−P+ (no light)", "result": "−0.09", "unit": "log"}, {"measurement": "Log Red.", "setting": "[4]; 1 µM, 5 min irradiation 470 nm", "result": 0.86, "unit": "log"}, {"measurement": "Log Red.", "setting": "[4]; [8]", "result": 2.32, "unit": "log"}, {"measurement": "Log Red.", "setting": "[4]; [9]", "result": 2.83, "unit": "log"}, {"measurement": "Log Red.", "setting": "[4]; 1 µM, 30 min irradiation 470 nm (30 J/cm^2)", "result": 3.32, "unit": "log"}, {"measurement": "Log Red.", "setting": "[4]; [13]", "result": 4.29, "unit": "log"}, {"measurement": "Log Red.", "setting": "[4]; 10 µM, 15 min irradiation 470 nm", "result": 4.75, "unit": "log"}, {"measurement": "Log Red.", "setting": "[4]; [11]", "result": ">4.85", "unit": "log"}, {"measurement": "Log Red.", "setting": "[5]; 1 µM, 5 min irradiation 470 nm (5 J/cm^2)", "result": 3.03, "unit": "log"}, {"measurement": "irradiation time to complete eradication", "setting": "[5]; 1 µM", "result": 15, "unit": "min"}, {"measurement": "Log Red.", "setting": "[5]; [12]", "result": 4.51, "unit": "log"}, {"measurement": "Log Red.", "setting": "[5]; [8]", "result": ">4.93", "unit": "log"}, {"measurement": "Log Red.", "setting": "[5]; [13]", "result": ">4.93", "unit": "log"}, {"measurement": "irradiation time to complete eradication", "setting": "[5]; 10 µM", "result": 5, "unit": "min"}]}
